Data: ChEMBL document CHEMBL2074456, “Estrone and 17beta-estradiol reverse breast cancer resistance protein-mediated multidrug resistance” (Jpn J Cancer Res, 2002)

What was measured:
[1] = biological target: T1, Broad substrate specificity ATP-binding cassette transporter ABCG2 (Homo sapiens, UniProt Q9UNQ0); assay: TP_TRANSPORTER: inhibition of Topotecan efflux (Topotecan: 20 uM, beta-Estradiol: 100 uM) in BCRP-expressing K562 cells: flow cytometric analysis; format: functional, cell-based; conditions: k562, 100 µM
T1 sequence (Q9UNQ0 whole entry): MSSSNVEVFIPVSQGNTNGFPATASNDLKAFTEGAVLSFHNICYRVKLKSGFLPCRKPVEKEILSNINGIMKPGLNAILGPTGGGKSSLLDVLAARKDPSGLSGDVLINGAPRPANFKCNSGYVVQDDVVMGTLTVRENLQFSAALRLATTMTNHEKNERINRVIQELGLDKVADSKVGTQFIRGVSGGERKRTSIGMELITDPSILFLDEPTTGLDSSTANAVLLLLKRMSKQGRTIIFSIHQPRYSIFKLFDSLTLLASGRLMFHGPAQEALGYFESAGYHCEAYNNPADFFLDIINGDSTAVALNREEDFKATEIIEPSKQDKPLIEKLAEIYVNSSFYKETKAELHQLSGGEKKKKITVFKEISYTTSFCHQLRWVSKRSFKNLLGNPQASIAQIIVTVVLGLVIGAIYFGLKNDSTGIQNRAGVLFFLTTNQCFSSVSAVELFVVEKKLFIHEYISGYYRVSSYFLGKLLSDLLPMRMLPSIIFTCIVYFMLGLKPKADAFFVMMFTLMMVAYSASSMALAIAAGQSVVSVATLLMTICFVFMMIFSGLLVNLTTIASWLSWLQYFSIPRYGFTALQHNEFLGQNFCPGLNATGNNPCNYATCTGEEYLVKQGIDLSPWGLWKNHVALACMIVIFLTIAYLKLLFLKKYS

[2] = biological target: T1, Broad substrate specificity ATP-binding cassette transporter ABCG2; assay: TP_TRANSPORTER: inhibition of Topotecan efflux (Topotecan: 20 uM, Estrone: 100 uM) in BCRP-expressing K562 cells: flow cytometric analysis; format: functional, cell-based; conditions: k562, 100 µM

Row | Activity [1] | Activity [2] | SMILES
1 | inhibitor [+] | – | C[C@]12CC[C@@H]3c4ccc(O)cc4CC[C@H]3[C@@H]1CC[C@@H]2O [ESTRADIOL]
2 | – | inhibitor [+] | C[C@]12CC[C@@H]3c4ccc(O)cc4CC[C@H]3[C@@H]1CCC2=O [ESTRONE]
